Experimental data as given in ChEMBL document CHEMBL1141167, “Antitumor activity of new substituted 3-(5-imidazo[2,1-b]thiazolylmethylene)-2-indolinones and study of their effect on the cell cycle” (2005).
Several values for one entry are separate records, joined by “and”; a condition that tells them apart may be missing. Equal entries are not always repeated.

Experiments:
[1] = tested on: CNS cell; assay: Growth inhibitory concentration dissolved in DMSO against human CNS cell line at 10E-4 M concentration; type: functional
[2] = tested on: Colon cell; assay: Total growth inhibition of human Colon cell line at 10E-4 M concentration; type: functional; design: unit not given here
[3] = tested on: NSCLC; assay: Total growth inhibition of human NSCLC cell line at 10E-4 M concentration; type: functional
[4] = tested on: Breast carcinoma cell; assay: Total growth inhibition of human Breast cell line at 10E-4 M concentration; type: functional
[5] = tested on: Panel NCI-60 (60 carcinoma cell lines); assay: Total growth inhibition of human MG-MID cell line at 10E-4 M concentration; type: functional
[6] = tested on: Ovarian carcinoma cell; assay: Total growth inhibition of human Ovarian cell line at 10E-4 M concentration; type: functional
[7] = tested on: Melanoma cell; assay: Total growth inhibition of human Melanoma cell line at 10E-4 M concentration; type: functional
[8] = tested on: Prostate cell; assay: Total growth inhibition of human Prostate cell line at 10E-4 M concentration; type: functional
[9] = tested on: Prostate cell; assay: Growth inhibitory concentration dissolved in DMSO against human Prostate cell line at 10E-4 M concentration; type: functional
[10] = tested on: Ovarian carcinoma cell; assay: Growth inhibitory concentration dissolved in DMSO against human Ovarian cell line at 10E-4 M concentration; type: functional
[11] = tested on: Melanoma cell; assay: Growth inhibitory concentration dissolved in DMSO against human Melanoma cell line at 10E-4 M concentration; type: functional
[12] = tested on: Colon cell; assay: Growth inhibitory concentration dissolved in DMSO against human Colon cell line at 10E-4 M concentration; type: functional
[13] = tested on: NSCLC; assay: Growth inhibitory concentration dissolved in DMSO against human NSCLC cell line at 10E-4 M concentration; type: functional; design: unit not given here
[14] = tested on: Renal cell; assay: Growth inhibitory concentration dissolved in DMSO against human Renal cell line at 10E-4 M concentration; type: functional; design: unit not given here
[15] = tested on: Breast carcinoma cell; assay: Growth inhibitory concentration dissolved in DMSO against human Breast cell line at 10E-4 M concentration; type: functional
[16] = tested on: Panel NCI-60 (60 carcinoma cell lines); assay: Growth inhibitory concentration dissolved in DMSO against human MG-MID cell line at 10E-4 M concentration; type: functional
[17] = tested on: CNS cell; assay: Cytotoxic effect dissolved in DMSO against CNS cell line at 10E-4 M concentration; type: functional, Homo sapiens
[18] = tested on: Colon cell; assay: Cytotoxic effect dissolved in DMSO against Colon cell line at 10E-4 M concentration; type: functional, Homo sapiens
[19] = tested on: NSCLC; assay: Cytotoxic effect dissolved in DMSO against NSCLC cell line at 10E-4 M concentration; type: functional, Homo sapiens
[20] = tested on: HT-29; assay: Percentage of Cells after administration of compound dissolved in DMSO (10e-4 M) towards colon adenocarcinoma cell line HT-29 in G2/M Phase after 24 Hours of Treatment [control = 10]; type: functional, Homo sapiens
[21] = tested on: HT-29; assay: Percentage of Cells after administration of compound dissolved in DMSO (10e-5 M) towards colon adenocarcinoma cell line HT-29 in G2/M Phase after 24 Hours of Treatment [control = 10]; type: functional, Homo sapiens
[22] = tested on: HT-29; assay: Percentage of Cells after administration of compound dissolved in DMSO (10e-6 M) towards colon adenocarcinoma cell line HT-29 in G2/M Phase after 24 Hours of Treatment [control = 10]; type: functional, Homo sapiens
[23] = tested on: Renal cell; assay: Cytotoxic effect dissolved in DMSO against Renal cell line at 10E-4 M concentration; type: functional, Homo sapiens
[24] = tested on: Breast carcinoma cell; assay: Cytotoxic effect dissolved in DMSO against Breast cell line at 10E-4 M concentration; type: functional, Homo sapiens
[25] = tested on: Panel NCI-60 (60 carcinoma cell lines); assay: Cytotoxic effect dissolved in DMSO against MG-MID cell line at 10E-4 M concentration; type: functional, Homo sapiens
[26] = tested on: Ovarian carcinoma cell; assay: Cytotoxic effect dissolved in DMSO against Ovarian cell line at 10E-4 M concentration; type: functional, Homo sapiens
[27] = tested on: Melanoma cell; assay: Cytotoxic effect dissolved in DMSO against Melanoma cell line at 10E-4 M concentration; type: functional, Homo sapiens
[28] = tested on: HT-29; assay: Percentage of Cells after administration of compound dissolved in DMSO (10e-7M) towards colon adenocarcinoma cell line HT-29 in G2/M Phase after 24 Hours of Treatment [control = 10]; type: functional, Homo sapiens
[29] = tested on: HT-29; assay: Percentage of Cells after administration of compound dissolved in DMSO (10e-8 M) towards colon adenocarcinoma cell line HT-29 in G2/M Phase after 24 Hours of Treatment [control = 10]; type: functional, Homo sapiens
[30] = tested on: Prostate cell; assay: Cytotoxic effect dissolved in DMSO against Prostate cell line at 10E-4 M concentration; type: functional, Homo sapiens
[31] = tested on: CNS cell; assay: Growth inhibitory concentration dissolved in DMSO against human CNS cell line at 10E-3 M concentration; type: functional
[32] = tested on: Colon cell; assay: Growth inhibitory concentration dissolved in DMSO against human Colon cell line at 10E-3 M concentration; type: functional
[33] = tested on: CNS cell; assay: Total growth inhibition of human CNS cell line at 10E-3 M concentration; type: functional
[34] = tested on: Colon cell; assay: Total growth inhibition of human Colon cell line at 10E-3 M concentration; type: functional
[35] = tested on: NSCLC; assay: Total growth inhibition of human NSCLC cell line at 10E-3 M concentration; type: functional
[36] = tested on: Renal cell; assay: Total growth inhibition of human Renal cell line at 10E-3 M concentration; type: functional
[37] = tested on: Panel NCI-60 (60 carcinoma cell lines); assay: Total growth inhibition of human MG-MID cell line at 10E-3 M concentration; type: functional
[38] = tested on: Breast carcinoma cell; assay: Total growth inhibition of human Breast cell line at 10E-3 M concentration; type: functional
[39] = tested on: Leukemia cell; assay: Total growth inhibition of human Leukemia cell line at 10E-3 M concentration; type: functional
[40] = tested on: Melanoma cell; assay: Total growth inhibition of human Melanoma cell line at 10E-3 M concentration; type: functional
[41] = tested on: Ovarian carcinoma cell; assay: Total growth inhibition of human Ovarian cell line at 10E-3 M concentration; type: functional
[42] = tested on: Prostate cell; assay: Total growth inhibition of human Prostate cell line at 10E-3 M concentration; type: functional
[43] = tested on: Leukemia cell; assay: Growth inhibitory concentration dissolved in DMSO against human leukemia cell line at 10E-3 M concentration; type: functional
[44] = tested on: Melanoma cell; assay: Growth inhibitory concentration dissolved in DMSO against human Melanoma cell line at 10E-3 M concentration; type: functional
[45] = tested on: Prostate cell; assay: Growth inhibitory concentration dissolved in DMSO against human Prostate cell line at 10E-3 M concentration; type: functional
[46] = tested on: NSCLC; assay: Growth inhibitory concentration dissolved in DMSO against human NSCLC cell line at 10E-3 M concentration; type: functional
[47] = tested on: Renal cell; assay: Growth inhibitory concentration dissolved in DMSO against human Renal cell line at 10E-3 M concentration; type: functional
[48] = tested on: Breast carcinoma cell; assay: Growth inhibitory concentration dissolved in DMSO against human Breast cell line at 10E-3 M concentration; type: functional
[49] = tested on: Panel NCI-60 (60 carcinoma cell lines); assay: Growth inhibitory concentration dissolved in DMSO against human MG-MID cell line at 10E-3 M concentration; type: functional
[50] = tested on: Ovarian carcinoma cell; assay: Growth inhibitory concentration dissolved in DMSO against human Ovarian cell line at 10E-3 M concentration; type: functional
[51] = tested on: CNS cell; assay: Cytotoxic effect dissolved in DMSO against CNS cell line at 10E-3 M concentration; type: functional, Homo sapiens
[52] = tested on: Colon cell; assay: Cytotoxic effect dissolved in DMSO against Colon cell line at 10E-3 M concentration; type: functional, Homo sapiens
[53] = tested on: NSCLC; assay: Cytotoxic effect dissolved in DMSO against NSCLC cell line at 10E-3 M concentration; type: functional, Homo sapiens
[54] = tested on: Breast carcinoma cell; assay: Cytotoxic effect dissolved in DMSO against Breast cell line at 10E-3 M concentration; type: functional, Homo sapiens
[55] = tested on: Panel NCI-60 (60 carcinoma cell lines); assay: Cytotoxic effect dissolved in DMSO against MG-MID cell line at 10E-3 M concentration; type: functional, Homo sapiens
[56] = tested on: Ovarian carcinoma cell; assay: Cytotoxic effect dissolved in DMSO against Ovarian cell line at 10E-3 M concentration; type: functional, Homo sapiens
[57] = tested on: Leukemia cell; assay: Cytotoxic effect dissolved in DMSO against Leukemia cell line at 10E-3 M concentration; type: functional, Homo sapiens
[58] = tested on: Melanoma cell; assay: Cytotoxic effect dissolved in DMSO against Melanoma cell line at 10E-3 M concentration; type: functional, Homo sapiens
[59] = tested on: Prostate cell; assay: Cytotoxic effect dissolved in DMSO against Prostate cell line at 10E-3 M concentration; type: functional, Homo sapiens
[60] = tested on: Renal cell; assay: Cytotoxic effect dissolved in DMSO against Renal cell line at 10E-3 M concentration; type: functional, Homo sapiens

For Cc1cn2c(/C=C3/C(=O)Nc4ccc(Cl)cc43)c(C)nc2s1, the “pGI50 (-log GI50, M)” value [1] was 6.13, the TGI [2] was 5.06 and 5.08 and the TGI [3] was 4.65. The TGI [4] was 4.85, the TGI [5] was 4.81 and the TGI [6] was 4.82. For the same molecule, the TGI [7] was 4.6, the TGI [8] was 5.62 and the “pGI50 (negative log molar GI50)” value [9] was 6.98. The “pGI50 (negative log of GI50 in M)” value [10] was 5.91, the “pGI50 (-log molar GI50)” value [11] was 6.21 and the “pGI50 (negative log of molar GI50)” value [12] was 6.72. For the same molecule, the GI50 [13] was 6.17, the GI50 [14] was 6.54 and the “pGI50 (-log GI50, M)” value [15] was 6.51. The GI50 [16] was -6.42, the LC50 [17] was 4.16 and the LC50 [18] was 4.34. It also gave an LC50 [19] of 4.16, an Activity [20] of 61.6% and an Activity [21] of 86.2%. The Activity [22] was 72%, the LC50 [23] was 4.06 and the LC50 [24] was 4.02. It also gave an LC50 [25] of 4.15, an LC50 [26] of 4.3 and an LC50 [27] of 4.06. The Activity [28] was 9.7%, the Activity [29] was 11.1% and the LC50 [30] was 4.36.

In the case of CC[C@]1(O)C[C@H]2CN(CCc3c([nH]c4ccccc34)[C@@](C(=O)OC)(c3cc4c(cc3OC)N(C=O)[C@H]3[C@@](O)(C(=O)OC)[C@H](OC(C)=O)[C@]5(CC)C=CCN6CC[C@]43[C@@H]65)C2)C1.O=S(=O)(O)O [VINCRISTINE SULFATE], the pGI50 [31] is reported as 6.9, the pGI50 [32] is reported as 7 and the pTGI [33] is reported as 5.2. It also gave a pTGI [34] of 5.4, a pTGI [35] of 4.8 and a pTGI [36] of 4.7. For the same molecule, the pTGI [37] was 5, the pTGI [38] was 5.1 and the pTGI [39] was 4.8. For the same molecule, the pTGI [40] was 5.1, the pTGI [41] was 4.7 and the pTGI [42] was 5.2. The pGI50 [43] was 7, the pGI50 [44] was 6.8 and the pGI50 [45] was 6.9. The pGI50 [46] was 6.6, the pGI50 [47] was 6.5 and the pGI50 [48] was 6.5. The pGI50 [49] was 6.7, the pGI50 [50] was 6.5 and the LC50 [51] was 3.7. The LC50 [52] was 4.1, the LC50 [53] was 3.6 and the LC50 [54] was 3.5. The LC50 [55] was 3.6, the LC50 [56] was 3.5 and the LC50 [57] was 3.2. It also gave an LC50 [58] of 3.6, an LC50 [59] of 3.5 and an LC50 [60] of 3.6.
